{"source": "patent US6469013B2", "about": "“Therapeutic compounds” (Parker Hughes Institute, priority 1998, dated 2002)", "key": {"[1]": {"system": "NALM-6 cells", "experiment": "In situ TUNEL apoptosis assay", "type": "cell-based", "details": "Homo sapiens, 10-500 μM, 48 hours, read-out: EC50, percentage of apoptotic cells (TUNEL)", "source_text": "Apoptosis Assays Cells were examined for apoptotic changes after treatment with compound 6 by the in situ terminal […] transferase-mediated dUTP end-labeling (TUNEL) assay using the ApopTag apoptosis detection kit (Oncor, Gaithersburg, Md.) according to the manufacturer's recommendations, as detailed in our earlier reports (Zhu, D. -M., et al., Clin. Can. Res. 4: 2967-2976, 1998; D'Cruz, O., P., G., and Uckun, F. M. Biology of Reproduction. 58: 1515-1526, 1998).\nTo confirm that compound 6 can induce apoptosis in leukemia cells, the TdT-mediated labeling of 3′-OH termini with digoxigenin-conjugated UTP using the in situ TUNEL assay method combined with confocal laser scanning microscopy was employed. At 48 hours after treatment with compound 6 at concentrations ranging from 10 μM to 500 μM, NALM-6 cells were examined for digoxigenin-dUTP incorporation using FITC-conjugated anti-digoxigenin (green fluorescence) and propidium iodide counterstaining (red fluorescence). […] FIG. 8B.1 and 8B.2 depict the two-color confocal microscopy images of vehicle-treated control cells and cells treated with 100 μM compound 6. […] Because of their exquisite sensitivity in detecting DNA fragments released from a small percentage of apoptotic cells, the DNA gel assays of apoptosis are uniquely suited to examine the nonspecific toxicity of new antileukemic agents."}, "[2]": {"system": "skh-1 mice", "experiment": "Chronic UVB-induced skin tumorigenesis", "type": "in vivo, mouse", "protocol": "Female, 6-7 weeks old, hairless albino mice (skh-1) were purchased from Charles River Laboratories (Wilmington, Mass.) and were housed in a controlled environment (12-h light/12-h dark photo period, 22±1° C., 60±10% relative humidity), which is fully accredited by the USDA (United States Department of Agriculture). Animals were caged in groups of five in a pathogen free environment in accordance with the rules and regulations of U.S. Animal Welfare Act, and National Institutes of Health (NIH). All mice were housed in microisolator cages (Lab Products, Inc., N.J.) containing autoclaved bedding. The mice were allowed free access to autoclaved pellet food and tap water throughout the experiments. Animal care and the experimental procedures were carried out in agreement with institutional guidelines.\nUltraviolet lamps (8-FSX24T12/HO/UVB) that emit light predominantly in the UVB range (280-320 nm) were obtained from National Biological Corporation, Twinsburg, Ohio. The irradiance of the UVB lamps was determined before each irradiation, using a UVB meter (model—500C obtained from National Biological Corporation, Twinsburg, Ohio). For exposure to UV light, three mice were placed in an open 28 cm×10 cm plastic box that was divided in three compartments (one mouse per compartment). The plastic box was placed in the center, under the bank of UVB light, and the mice were irradiated with 35 mj/cm^2 dose of UVB. The exposure time for a 35 mj/cm ^2 dose of UVB varied from 30-34 s. The distance between UVB lamps and the surface receiving irradiation was 20 cm.\nThe mice were treated topically with a single application of Compound 6 (1.0 mg/cm^2, dissolved in DMSO) over a 2 cm^2 area on the dorsal surface before each UVB exposure. After 15 min. following Compound 6 application the mice were irradiated with UVB (35 mj/cm). UVB exposure of mice was performed three times a week for a total of 20 weeks. Control mice were treated with vehicle prior to UVB light exposure.\nThe skin thickness of mice, and papillary skin lesions greater than 1 mm in diameter were measured and recorded twice every week and the average of the two measurements was used in the calculations. Skin thickness, lesion number and lesion diameter measurements were limited only to the 2 cm^2 area on the dorsal surface of mice that was being treated either with compound 6 or vehicle. Lesion volume were calculated using the formula: […]\nAt the end of the study, 5-19 lesions from each group were randomly biopsied, and fixed in 10% buffered formalin. Formalin-fixed specimens were embedded in paraffin blocks, sectioned at 4 μm thickness, and stained in haematoxylin-eosin. The pathological evaluation of skin sections was performed by a Certified Veterinary Pathologist who was unaware of the identity of specimens.\nThe pathological classification of tumors was as follows: 1) Cutaneous papilloma: a tumor papillomatous growth of acanthotic epidermis without invasive growth of tumor cells into the dermis. […] 2) Actinic keratosis: a hyperplastic, orthokeratotic, mildly to moderately acanthotic epithelium. 3) Florid actinic keratosis: actinic keratosis with mild to moderately acanthotic ridges extending into the superficial dermis, resembling superficially invasive squamous cell carcinoma. 4) Keratoacanthoma: a papillary growth with a central keratin filled crater surrounded by hyperplastic, acanthotic stratified squamous epithelium. The leading edge of the tumor pushes into the underlying dermis. 5) Squamous cell carcinoma (SCC): a tumor with atypical cell nests invading into superficial and mid dermis."}, "[3]": {"system": "C57BL/6 males", "experiment": "Splenocyte populations after in vivo treatment (FACS)", "design": "species or system mouse", "details": "130 mg/kg for 10 days", "protocol": "All Abs were purchased from Pharmingen, San Diego, Calif. Stained splenocytes were analyzed by FACS Calibur, as described above."}, "[4]": {"details": "group C, 1 mg/cm^2 topical, 20 weeks"}, "[5]": {"details": "group C, 1 mg/cm^2 topical, 20 weeks, mean ± SEM"}}}
{"smiles": "COc1cc2ncnc(Nc3ccc(O)cc3)c2cc1OC", "note": "[WHI-P131, 4-(4′-hydroxyl-phenyl)-amino-6,7-dimethoxyquinazoline]", "values": [{"measurement": "EC50", "setting": "[1]", "value": 84.6, "unit": "µM"}, {"measurement": "inhibition of occurrence of SCC/Florid actinic keratosis", "setting": "[2]; group C vs group B, 20 weeks", "value": "about 23%"}, {"measurement": "No. of lesions/mouse", "setting": "[2]; group C, 1 mg/cm^2 topical before each UVB 35 mj/cm^2, 20 weeks, mean ± SEM", "value": "1.6 ± 0.4"}, {"measurement": "Percentage of mice with Actinic keratosis", "setting": "[2]; [4]", "value": 53, "unit": "Percentage"}, {"measurement": "Percentage of mice with Keratoacanthomas", "setting": "[2]; [4]", "value": 0, "unit": "Percentage"}, {"measurement": "Percentage of mice with Papilloma", "setting": "[2]; [4]", "value": 7, "unit": "Percentage"}, {"measurement": "Percentage of mice with SCC/Florid actinic keratosis", "setting": "[2]; [4]", "value": 57, "unit": "Percentage"}, {"measurement": "Avg. Vol/lesion", "setting": "[2]; [5]", "value": "1.9 ± 0.5"}, {"measurement": "Skin lesion volume/mouse", "setting": "[2]; [5]", "value": "3.2 ± 0.9"}, {"measurement": "onset of lesions (first lesion observed after)", "setting": "[2]; weeks of UVB-irradiation, vehicle group around 10 weeks", "value": 14, "unit": "weeks"}, {"measurement": "percentages of CD3+, CD4+ and CD8+ T-cells and CD19+ B-cells vs vehicle", "setting": "[3]; data not shown", "value": "no differences"}, {"measurement": "number of CD4+ T-cells", "setting": "[3]; controls 20.5±0.6", "value": "16.8±1.2 ×10^6"}, {"measurement": "number of CD3+ splenocytes", "setting": "[3]; controls 46.9±2.6", "value": "37.7±3.2 ×10^6"}, {"measurement": "number of B-cells", "setting": "[3]; controls 78.2±6.1", "value": "57.1±5.3 ×10^6"}, {"measurement": "Total number of splenocytes", "setting": "[3]; vehicle 154±8.5", "value": "119±9.4 ×10^6"}]}
